# Results from US8742129B2, “Crystalline forms of febuxostat” (Teva Pharmaceuticals Industries Ltd., priority 2009, dated 2014).
# Test: Solubility in ethanol of crystalline forms
# Assay type: physicochemical
# Settings: compared to other crystalline forms
structure (smiles),measurement,value
"Cc1nc(-c2ccc(OCC(C)C)c(C#N)c2)sc1C(=O)O [Febuxostat form F10, 2-(3-cyano-4-isobutyloxyphenyl)-4-methylthiazole-5-carboxylic acid]",solubility in ethanol,better solubility in ethanol compared to other crystalline forms
